Reference: the supplement of paper PMC10307832

Legend:
Experiment in all cases: relative viability (nuclei count vs DMSO), 5 days (fraction); higher = more cells survive
Linsitinib + Dasatinib = compound: C[C@]1(O)C[C@@H](c2nc(-c3ccc4ccc(-c5ccccc5)nc4c3)c3c(N)nccn32)C1 [Linsitinib] + Cc1nc(Nc2ncc(C(=O)Nc3c(C)cccc3Cl)s2)cc(N2CCN(CCO)CC2)n1 [Dasatinib] (partner 0.075 µM)
Procedure, shortened: (§1)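 Lung cancer cell lines were pin-tool dosed in 1536-well plates on the day after seeding, with either a lone drug or a fixed anchor-drug dose plus five library-drug doses (not always all listed) in √10 steps. Nuclei were counted on 4× images after 5 days. Relative viability is the ratio of treated-well to vehicle-well nuclei counts, with each value a median of duplicate plates.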

Ispinesib + Palbociclib = compound: Cc1ccc(C(=O)N(CCCN)[C@@H](c2nc3cc(Cl)ccc3c(=O)n2Cc2ccccc2)C(C)C)cc1 [Ispinesib] + CC(=O)c1c(C)c2cnc(Nc3ccc(N4CCNCC4)cn3)nc2n(C2CCCC2)c1=O [Palbociclib] (partner 0.5 µM)
Procedure, shortened: as §1

Linsitinib + Alpelisib = compound: C[C@]1(O)C[C@@H](c2nc(-c3ccc4ccc(-c5ccccc5)nc4c3)c3c(N)nccn32)C1 [Linsitinib] + Cc1nc(NC(=O)N2CCC[C@H]2C(N)=O)sc1-c1ccnc(C(C)(C)C(F)(F)F)c1 [Alpelisib] (partner 2 µM)
Procedure, shortened: as §1

Linsitinib + Pictilisib = compound: C[C@]1(O)C[C@@H](c2nc(-c3ccc4ccc(-c5ccccc5)nc4c3)c3c(N)nccn32)C1 [Linsitinib] + CS(=O)(=O)N1CCN(Cc2cc3nc(-c4cccc5[nH]ncc45)nc(N4CCOCC4)c3s2)CC1 [Pictilisib] (partner 1 µM)
Procedure, shortened: as §1

| Cell Line | relative viability (Linsitinib + Dasatinib; first compound 0.01 µM) | relative viability (Linsitinib + Dasatinib; first compound 0.03162 µM) | relative viability (Linsitinib + Dasatinib; first compound 0.1 µM) | relative viability (Linsitinib + Dasatinib; first compound 0.3162 µM) | relative viability (Linsitinib + Dasatinib; first compound 1 µM) | relative viability (Ispinesib + Palbociclib; first compound 0.001 µM) | relative viability (Ispinesib + Palbociclib; first compound 0.003162 µM) | relative viability (Ispinesib + Palbociclib; first compound 0.01 µM) | relative viability (Ispinesib + Palbociclib; first compound 0.03162 µM) | relative viability (Ispinesib + Palbociclib; first compound 0.1 µM) | relative viability (Linsitinib + Alpelisib; first compound 0.01 µM) | relative viability (Linsitinib + Alpelisib; first compound 0.03162 µM) | relative viability (Linsitinib + Alpelisib; first compound 0.1 µM) | relative viability (Linsitinib + Alpelisib; first compound 0.3162 µM) | relative viability (Linsitinib + Alpelisib; first compound 1 µM) | relative viability (Linsitinib + Pictilisib; first compound 0.01 µM) | relative viability (Linsitinib + Pictilisib; first compound 0.03162 µM) | relative viability (Linsitinib + Pictilisib; first compound 0.1 µM) | relative viability (Linsitinib + Pictilisib; first compound 0.3162 µM) | relative viability (Linsitinib + Pictilisib; first compound 1 µM) |
| --- | --- | --- | --- | --- | --- | --- | --- | --- | --- | --- | --- | --- | --- | --- | --- | --- | --- | --- | --- | --- |
| NCI-H1734 | 0.473 | 0.488 | 0.45 | 0.504 | 0.315 | 0.396 | 0.224 | 0.41 | 0.346 | 0.279 | 0.688 | 0.744 | 0.65 | 0.692 | 0.612 | 0.474 | 0.456 | 0.392 | 0.421 | 0.295 |
| NCI-H1755 | 0.428 | 0.431 | 0.427 | 0.363 | 0.229 | 0.467 | 0.451 | 0.457 | 0.431 | 0.463 | 0.938 | 0.875 | 0.961 | 0.78 | 0.896 | 0.422 | 0.409 | 0.442 | 0.237 | 0.372 |
| NCI-H1792 |  | 0.927 | 0.771 | 0.529 | 0.215 | 0.725 | 0.762 | 0.859 | 0.686 | 0.301 | 0.803 | 0.751 | 0.615 | 0.606 | 0.538 | 0.314 | 0.279 | 0.192 | 0.269 | 0.179 |
| NCI-H1793 | 0.434 | 0.367 | 0.382 | 0.332 | 0.392 | 0.358 | 0.314 | 0.31 | 0.312 | 0.219 | 0.71 | 0.734 | 0.738 | 0.615 | 0.738 | 0.309 | 0.311 | 0.238 | 0.235 | 0.29 |
| NCI-H1915 | 0.306 | 0.351 | 0.299 | 0.331 | 0.234 | 0.528 | 0.694 | 0.542 | 0.491 | 0.41 | 1.08 | 1.15 | 1.14 | 0.913 | 0.878 | 0.996 | 0.943 | 0.97 | 0.726 | 0.522 |
| NCI-H1944 | 0.224 | 0.237 | 0.196 | 0.236 | 0.162 | 0.347 | 0.35 | 0.353 | 0.279 | 0.304 | 0.753 | 0.962 | 0.865 | 0.918 | 0.801 | 0.33 | 0.354 | 0.344 | 0.349 | 0.299 |
| NCI-H1975 | 0.37 | 0.349 | 0.331 | 0.241 | 0.235 | 0.663 | 0.683 | 0.581 | 0.311 | 0.192 | 0.608 | 0.62 | 0.647 | 0.543 | 0.453 | 0.286 | 0.253 | 0.246 | 0.255 | 0.178 |
| NCI-H1993 | 0.645 | 0.584 | 0.509 | 0.738 | 0.475 | 0.566 | 0.404 | 0.66 | 0.673 | 0.487 | 0.723 | 0.568 | 0.701 | 0.75 | 0.64 | 0.831 | 0.832 | 0.843 | 0.643 | 0.896 |
